Data on three compounds can be found in patent publication US7173014B2, “HIV-specific synthetic oligonucleotides and methods of their use” (priority 1997, dated 2007).

Read-outs that look alike come from different tables or passages of the source.

One data set has as its system HIV-1 (IIIB, RF and SK1). Put plainly: XTT-based anti-HIV assay, laboratory strains of HIV-1. The class given is cell-based. The text has this: (§1) The initial experiment performed involved evaluation of Oligos 12, 32, and 41 against three laboratory strains of HIV-1 (IIIB, RF and SK1) and one strain of HIV-2 (ROD) in parallel with the positive control compound ddC in the XTT-based anti-HIV assay. All these oligonucleotides are active against both HIV-1 and HIV-2.
CEM-SS sells (AIDS Research and Reference Reagent Program, NIH) or other established human T cell lines used in these experiments were passaged in T-150 flasks for use in the assay. On the day preceding the assay, the cells were split 1:2 to assure they would be in an exponential growth phase at time of infection. On the day of assay the cells were washed twice with tissue culture medium and resuspended in fresh tissue cultures medium. Total cell and viability counting was performed using a hemacytometer and trypan blue dye exclusion. Cell viability was greater than 95% for the cells to be utilized in the assay. The cells were pelleted and resuspended at 2.5×10^4 cells per ml in tissue culture medium. […]
A pretitered aliquot of virus was removed from the freezer −80° C.) and allowed to thaw slowly to room temperature in a biological safety cabinet. The virus was resuspended and diluted into tissue culture medium such that the amount of virus added to each well in a volume of 50 μl will be the amount determined to give complete cell killing at 6 days post-infection. […]
After 6 days of incubation at 37° C. in a 5% CO2 incubator, the test plates were analyzed by staining with the tetrazolium dye XTT. XTT-tetrazolium is metabolized by the mitochondrial enzymes of metabolically active cells to a soluble formazan product, allowing the rapid quantitative analysis of the inhibition of HIV-induced cell killing by anti-HIV test substances. […]
XTT solution was prepared daily as a stock of 1 mg/ml in PBS. […] Adhesive plate sealers were used in place of the lids, the sealed plate was inverted several times to mix the soluble formazan product and the plate was read spectrophotometrically at A450 nm with a Molecular Devices Vmax plate reader.

Data set [1] deals with monocyte-macrophage-tropic strains BaL and ADA. The experiment in a line: Anti-HIV assay in fresh human monocyte-macrophages. It is filed as cell-based, HIV-1. The procedure:
In addition to these T-tropic strains, the activity of the compounds was also evaluated against the monocyte-macrophage strains BaL and ADA. Oligos 12 and 32 according to the invention, as well as Oligo 41 are active against low passage clinical T-tropic strains of HIV-1. The activity of the compounds varies from strain to strain. The compounds were not active against the monocyte-macrophage-tropic strains BaL and ADA.
For isolation of adherent cells, 3×10^6 non-PHA stimulated peripheral blood cells were resuspended in Hanks buffered saline (with calcium and magnesium) supplemented with 10% human AB serum. The cells were placed in a 24-well microtiter plate at 37° C. for 2 hours. Non-adherent cells were removed by vigorously washing six times. The adherent cells were cultured for 7 days in RPMI 1640 tissue culture medium with 15% fetal bovine serum. The cultures were carefully monitored for confluency during this incubation period. Infection of the cells was performed with the monocytotropic HIV-1 strains BaL or ADA and the matched pair of AZT-sensitive and AZT-resistant virus isolates. Each of these virus isolates was obtained from the NIAID AIDS Research and Reference Reagent Program. High titer pools of each of these viruses have been harvested from infected cultures of peripheral blood adherent cells and frozen in 1.0 ml aliquots at −80° C. Monocyte-macrophage monolayers were infected at an MOI of 0.1. Compounds to be evaluated in the monocyte-macrophage assay are added to the monolayers shortly before infection in order to maximize the potential for identifying active compounds.
At 2 days post-infection, the medium was decanted and the cultures washed twice with complete medium in order to remove excess virus. […] Control curves are generated in each assay to accurately quantify the amount of capsid protein in each sample. Data was obtained by spectrophotometric analysis at 450 nm using a plate reader (Molecular Devices Vmax). P24 concentrations were calculated from the optical density values by use of the Molecular Device software package Soft Max.

The test system of data set [2] is low passage, clinical strains of HIV-1. The experiment in a line: Anti-HIV activity in fresh human peripheral blood mononuclear cells. The class given is cell-based. The settings on record: fresh human PBMC; varies from strain to strain. The procedure: In another experiment, the anti-HIV activity of Oligos 12, 32, and 41 was evaluated against a variety of low passage, clinical strains of HIV-1 in fresh human peripheral blood mononuclear cells. These strains include viruses obtained from pediatric patients attending the Children's Hospital University of Alabama at Birmingham as well as viruses representative of the various HIV-1 clades found throughout the world, shown below in TABLE 4.
Fresh human peripheral blood lymphocytes (PBL) were isolated from voluntary Red Cross donors, seronegative for HIV and HBV. Leukophoresed blood was diluted 1:1 with Dulbecco's phosphate buffered saline (PBS), layered over 14 ml of Ficoll-Hypaque density gradient in a 50 ml centrifuge tube. Tubes were then centrifuged for 30 minutes at 600×g. Banded PBLs were gently aspirated from the resulting interface and subsequently washed 2× with PBS by low speed centrifugation. After final wash, cells were enumerated by trypan blue exclusion and re-suspended at 1×10^7/ml in RPMI 1640 with 15% Fetal Bovine Serum (FBS), 2 mM L-glutamine, […] PHA-P and allowed to incubate for 48–72 hours at 37° C. After incubation, PBLs were centrifuged and reset in RPMI 1640 with 15% FBS, 2 mM L-glutamine, 100 U/ml penicillin, 100 μg/ml streptomycin, 10 μg/ml gentamycin, and 20 U/ml recombinant human IL-2. PBLs were maintained in this medium at a concentration of 1–2×10^6/ml with bi-weekly medium changes, until use in assay protocol. […]
In the standard PBL assay (MOI: 0.2), the assay was ended on day 7 following collection of cell free supernatant samples for reverse transcriptase activity assay. In the low MOI PBL assay (MOI: 0.02), supernatant samples were collected on day 6, day 11, and day 14 post-infection and analyzed for RT activity. […] Opti-Fluor O was added to each sample and incorporated radioactivity was quantified utilizing a liquid scintillation counter, (Wallac 1450 Microbetaplus, Gaithersburg, Md.).

The subject of the next data set is HIV-2 (ROD). Put plainly: XTT-based anti-HIV assay, HIV-2. The class given is cell-based. Conditions: XTT assay.
Text: as §1
CEM-SS sells (AIDS Research and Reference Reagent Program, NIH) or other established human T cell lines used in these experiments were passaged in T-150 flasks for use in the assay. On the day preceding the assay, the cells were split 1:2 to assure they would be in an exponential growth phase at time of infection. On the day of assay the cells were washed twice with tissue culture medium and resuspended in fresh tissue cultures medium. Total cell and viability counting was performed using a hemacytometer and trypan blue dye exclusion. Cell viability was greater than 95% for the cells to be utilized in the assay. The cells were pelleted and resuspended at 2.5×10^4 cells per ml in tissue culture medium. Cells were added to the drug-containing plates in a volume of 50 μl.
A pretitered aliquot of virus was removed from the freezer −80° C.) and allowed to thaw slowly to room temperature in a biological safety cabinet. The virus was resuspended and diluted into tissue culture medium such that the amount of virus added to each well in a volume of 50 μl will be the amount determined to give complete cell killing at 6 days post-infection. In general the virus pools produced with the IIIB isolate of HIV required the addition of 5 μl of virus per well.
Each plate contained cell control wells (cells only), virus control wells (cells plus virus), drug toxicity control wells (cells plus drug only), drug colorimetric control wells (drug only) as well as experimental wells (drug plus cells plus virus).
After 6 days of incubation at 37° C. in a 5% CO2 incubator, the test plates were analyzed by staining with the tetrazolium dye XTT. XTT-tetrazolium is metabolized by the mitochondrial enzymes of metabolically active cells to a soluble formazan product, allowing the rapid quantitative analysis of the inhibition of HIV-induced cell killing by anti-HIV test substances. On day 6 post-infection plates were removed from the incubator and observed. The use of round bottom microtiter plates allows rapid macroscopic analysis of the activity of a given test compound by the evaluation of pellet size. The results of the macroscopic observations were confirmed and enhanced by further microscopic analysis.
XTT solution was prepared daily as a stock of 1 mg/ml in PBS. Phenazine methosulfate (PMS) solution was prepared at 15 mg/ml in PBS and stored in the dark at −20° C. XTT/PMS stock was prepared immediately before use by diluting the PMS 1:100 into PBS and adding 40 μl per ml of XTT solution. Fifty microliters of XTT/PMS was added to each well of the plate and the plate was incubated for an additional 4 hours at 37° C. Adhesive plate sealers were used in place of the lids, the sealed plate was inverted several times to mix the soluble formazan product and the plate was read spectrophotometrically at A450 nm with a Molecular Devices Vmax plate reader.

For data set [3], the system named is clinical strains of HIV-1. Put plainly: AZT and ddI sensitivity of clinical strains of HIV-1 (Table 3). The class given is cell-based. The procedure:
To determine the preclinical range of anti-HIV activity of various oligonucleotides of the invention (see TABLE 2), evaluations were performed with Oligo 12 (having SEQ ID NO:1), Oligo 32 (SEQ ID NO:3) and Oligo 41 (SEQ ID NO:6). These evaluations were performed to determine the activity of these compounds against a variety of wild type and drug resistant strains of HIV 1, including both laboratory derived and low passage, clinical strains of virus and T lymphocyte tropic and monocyte macrophage tropic viruses such as those listed below in TABLE 3.

Turning to “CGCACCCATCTCTCTCCUUCU (chemistry not given here) [Oligo 32]”, in the data set on HIV-1 (IIIB, RF and SK1), the “activity against HIV-1” value is reported as “active”. In addition, in data set [1], the “activity against monocyte-macrophage-tropic strains BaL and ADA” value was “not active”. Further, in data set [2], the “activity against low passage clinical T-tropic strains of HIV-1” value is listed as “active”. Also, the “level of activity against the HIV-2 strain ROD” value with HIV-2 (ROD) (compared with the HIV-1 strains) is recorded as “enhanced level of activity”. Further, the “activity against HIV-2” value in the data set on HIV-2 (ROD) (strain ROD) is recorded as “active”.

`Cc1cn([C@H]2C[C@H](N=[N+]=[N-])[C@@H](CO)O2)c(=O)[nH]c1=O` [AZT, 3′-azido-3′-deoxythymidine]: the IC50 in data set [3] (Human immunodeficiency virus 1, isolate BAKI, tropism L, read-out: AZT IC50) came to 49 nM; in data set [3] (Human immunodeficiency virus 1, isolate BLCH, tropism L, read-out: AZT IC50), 10 nM; in data set [3] (Human immunodeficiency virus 1, isolate DEJO, tropism L, read-out: AZT IC50), 15 nM; in data set [3] (Human immunodeficiency virus 1, isolate RIARL, tropism L, read-out: AZT IC50), 10 nM; in data set [3] (Human immunodeficiency virus 1, isolate ROJO, tropism L, read-out: AZT IC50) it was 16 nM; in data set [3] (Human immunodeficiency virus 1, isolate ROMA, tropism M, read-out: AZT IC50), 16 nM. Moreover, the IC50 in data set [3] (Human immunodeficiency virus 1, isolate SLKA, tropism M, read-out: AZT IC50) came out at 25 nM; in data set [3] (Human immunodeficiency virus 1, isolate STDA, tropism L, read-out: AZT IC50) it was 17 nM; in data set [3] (Human immunodeficiency virus 1, isolate TEKI, tropism L, read-out: AZT IC50), 29 nM; in data set [3] (Human immunodeficiency virus 1, isolate TEKI, tropism M, read-out: AZT IC50) it was 16 nM; in data set [3] (Human immunodeficiency virus 1, isolate VIHU, tropism L, read-out: AZT IC50), 16 nM; in data set [3] (Human immunodeficiency virus 1, isolate WEJO, tropism L, read-out: AZT IC50), 56 nM. The IC50 in data set [3] (Human immunodeficiency virus 1, isolate WOME, tropism L, read-out: AZT IC50) was found to be 16 nM.

On to `O=c1[nH]cnc2c1ncn2[C@H]1CC[C@@H](CO)O1` [ddi, dideoxyinosine], for which the IC50 in data set [3] (isolate BAKI, tropism L, read-out: ddi IC50) is 2610 nM; in data set [3] (isolate ROJO, tropism L, read-out: ddi IC50), 870 nM; in data set [3] (isolate ROMA, tropism M, read-out: ddi IC50), 160 nM; in data set [3] (isolate SLKA, tropism M, read-out: ddi IC50), 320 nM; in data set [3] (isolate STDA, tropism L, read-out: ddi IC50), 230 nM; in data set [3] (isolate TEKI, tropism L, read-out: ddi IC50), 370 nM. Moreover, the IC50 in data set [3] (isolate TEKI, tropism M, read-out: ddi IC50) stood at 1700 nM; in data set [3] (isolate VIHU, tropism L, read-out: ddi IC50), 1210 nM; in data set [3] (isolate WEJO, tropism L, read-out: ddi IC50) it was 2180 nM; in data set [3] (isolate WOME, tropism L, read-out: ddi IC50), 410 nM.

As usually defined, the IC50 is the concentration needed to halve the response being measured.
